The numbers were not newly measured in patent US12473247B2, “Encoded design integrated synthesis of nucleic acids, and phospholipids, and related pharmaceutical products” (priority 2023, dated 2025), which cites them from elsewhere.

For series [1] the following is noted: ratio relative to cortisol = 1; pharmacological potency of corticosteroids.

For `c1ccc2c(c1)ccc1c3ccccc3ccc21` [chrysene], the solubility in aqueous result is reported as “insoluble”. Take `C[C@]12CCC(=O)C=C1CC[C@@H]1[C@@H]2[C@@H](O)C[C@@]2(C)[C@H]1CC[C@]2(O)C(=O)CO` [cortisol]: in series [1], the “relative activity of dexamethasone:prednisolone:cortisol” value is given as roughly 1. `C[C@]12C=CC(=O)C=C1CC[C@@H]1[C@@H]2[C@@H](O)C[C@@]2(C)[C@H]1CC[C@]2(O)C(=O)CO` [prednisolone]: in series [1], the “relative activity of dexamethasone:prednisolone:cortisol” value is on record as roughly 4.
